Source: patent US9556139B2, “6-substituted phenoxychroman carboxylic acid derivatives” (Array BioPharma Inc., priority 2008, dated 2017)

These compounds were tested against human DP2 (Homo sapiens (Human), UniProt Q9Y5Y4) (assay: DP-2 Binding Inhibition Assay (3H-PGD2 binding to membranes of K562 cells expressing DP2)). Settings: EC50 (nM) 0.1% BSA, inhibition of 3H-PGD2 binding, 0.1% BSA.
Description: DP-2 Binding Inhibition Assay
The coding sequence of human DP2 was introduced into the human Leukemic cell line K562 by electroporation and stable clones expressing DP2 were obtained by limiting dilution followed by cell surface staining with a rat monoclonal antibody specific for human DP2. Membranes were prepared from one of these DP2 expressing clones and used to determine the ability of compounds of the present invention to inhibit binding of prostaglandin D2 (PGD2) to its receptor DP2 in the presence of one or more of the following serum protein concentrations, 0.1% BSA, 1% HSA or 4% HSA, by the following procedure. Membranes (1.25 μg/well for 0.1% BSA and 6 μg/well for 1% or 4% HSA) were mixed with ^3H-labeled PGD2 and various concentrations of test compounds in 150 μL of binding buffer (50 mM Tris-HCl, pH 7.4, 40 mM MgCl2, 0.1% bovine serum albumin, 0.1% NaN3) in 96-well U-bottom polypropylene plates. After incubation for 60 minutes at room temperature, the assay was transferred to a filtration plate (#MAFB; Millipore Corporation, Bedford, Mass.), and washed three times with binding buffer. Radioactivity was measured by a scintillation counter (TopCount; PerkinElmer Life Sciences, Boston, Mass.). Nonspecific binding was determined by incubations in the presence of 1 μM unlabeled PGD2 or 5 μM of a known DP2 antagonist. EC50 values for inhibition of binding were determined for each compound tested from the inflexion point of a standard 4-parameter logistical curve fitted to the values obtained.

Chain of human DP2 (Q9Y5Y4 whole entry): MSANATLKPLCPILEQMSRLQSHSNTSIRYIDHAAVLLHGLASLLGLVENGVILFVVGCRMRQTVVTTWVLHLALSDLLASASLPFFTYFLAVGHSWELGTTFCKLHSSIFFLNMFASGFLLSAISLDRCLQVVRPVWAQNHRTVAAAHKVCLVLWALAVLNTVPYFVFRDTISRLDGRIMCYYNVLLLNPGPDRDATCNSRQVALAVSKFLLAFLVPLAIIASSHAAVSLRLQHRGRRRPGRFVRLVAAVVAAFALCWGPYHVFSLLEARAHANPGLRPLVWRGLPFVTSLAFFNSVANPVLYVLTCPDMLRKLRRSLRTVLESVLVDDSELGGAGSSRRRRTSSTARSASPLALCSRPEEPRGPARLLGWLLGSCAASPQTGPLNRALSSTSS

Compound | EC50 [nM]
O=C(NCCc1ccc(Cl)cc1O)c1ccc(Oc2cc3c(cc2Cl)C(C(=O)O)CCO3)cc1 (stereo not drawn) [Example 233, 6-Chloro-7-(4-(4-chloro-2-hydroxyphenethylcarbamoyl)phenoxy)chroman-4-carboxylic acid] | 11.1

Same assay, conditions: EC50 (nM) 4% HSA, inhibition of 3H-PGD2 binding, 4% HSA

Compound | EC50 [nM]
O=C(NC1CCC(c2ccccc2)CC1)c1ccc(Oc2cc3c(cc2Cl)C(C(=O)O)CCO3)cc1 (single isomer, unassigned) [Example 155 peak 1, 6-chloro-7-(4-(4-phenylcyclohexylcarbamoyl)phenoxy)chroman-4-carboxylic acid, isomer 1] | 399

Same assay, conditions: read-out: EC50 (Nm) 1% HSA; inhibition of 3H-PGD2 binding, 1% HSA

Compound | EC50 [nM]
N#Cc1cc2c(cc1Oc1ccc(C(=O)NC3COc4ccccc4C3)cc1)OCCC2C(=O)O (stereo not drawn) [Example 52, 7-(4-(chroman-3-ylcarbamoyl)phenoxy)-6-cyanochroman-4-carboxylic acid] | 90.8
Cc1cc(C(=O)NCCc2ccc(Cl)cc2)ccc1Oc1cc2c(cc1C#N)C(C(=O)O)CCO2 (stereo not drawn) [Example 129, 7-(4-(4-Chlorophenethylcarbamoyl)-2-methylphenoxy)-6-cyanochroman-4-carboxylic acid] | 21.9
O=C(NCCc1ccc(Cl)cc1)c1ccc(Oc2cc3c(cc2Cl)C(C(=O)O)CCO3)c([N+](=O)[O-])c1 (stereo not drawn) [Example 9, 6-Chloro-7-(4-(4-chlorophenethylcarbamoyl)-2-nitrophenoxy)chroman-4-carboxylic acid] | 203
N#Cc1cc2c(cc1Oc1ccc(C(=O)NCCc3ccc(F)cc3)cc1)OCCC2C(=O)O (stereo not drawn) [Example 49, 7-(4-((4-Fluorophenethyl)carbamoyl)phenoxy)-6-cyano-3,4-dihydro-2H-chromene-4-carboxylic acid] | 22.5

Same assay, conditions: read-out: EC50 (nM) 4% HSA; inhibition of 3H-PGD2 binding, 4% HSA

Compound | EC50 [nM]
Cc1ccc(-c2cccc(NC(=O)c3ccc(Oc4cc5c(cc4C#N)C(C(=O)O)CCO5)cc3)c2)cc1 (stereo not drawn) [Example 107, 6-Cyano-7-(4-(4′-methylbiphenyl-3-ylcarbamoyl)phenoxy)chroman-4-carboxylic acid] | 115
O=C(NC1CCN(c2cccc(Cl)c2)C1)c1ccc(Oc2cc3c(cc2Cl)C(C(=O)O)CCO3)cc1 (stereo not drawn) [Example 119, Sodium 6-chloro-7-(4-(1-(3-chlorophenyl)pyrrolidin-3-ylcarbamoyl)phenoxy)chroman-4-carboxylate] | 206
O=C(NCCc1ccc(Cl)cc1F)c1ccc(Oc2cc3c(cc2Cl)C(C(=O)O)CCO3)cc1 (stereo not drawn) [Example 230, 6-chloro-7-(4-(4-chloro-2-fluorophenethylcarbamoyl)phenoxy)chroman-4-carboxylic acid] | 243
O=C(NC1CN(c2cccc(C(F)(F)F)c2)C1)c1ccc(Oc2cc3c(cc2Cl)C(C(=O)O)CCO3)cc1 (stereo not drawn) [Example 121, Sodium 6-chloro-7-(4-(1-(3-(trifluoromethyl)phenyl)azetidin-3-ylcarbamoyl)phenoxy)chroman-4-carboxylate] | 4320
O=C(NCCc1ccc(Cl)cc1)c1ccc(Oc2c(C3CC3)cc3c(c2C2CC2)OCCC3C(=O)O)cc1 (stereo not drawn) [Example 39, Sodium 7-(4-(4-chlorophenethylcarbamoyl)phenoxy)-6,8-dicyclopropylchroman-4-carboxylate] | 68.2
COc1cccc(C2CCCC(NC(=O)c3ccc(Oc4cc5c(cc4Cl)C(C(=O)O)CCO5)cc3)C2)c1 (stereo not drawn) [Example 163, 6-Chloro-7-(4-(3-(3-methoxyphenyl)cyclohexylcarbamoyl)phenoxy)chroman-4-carboxylic acid] | 509
O=C(NCCC1CCCCC1)c1ccc(Oc2cc3c(cc2Cl)C(C(=O)O)CCO3)cc1 (stereo not drawn) [Example 180, Sodium 6-chloro-7-(4-(2-cyclohexylethylcarbamoyl)phenoxy)chroman-4-carboxylate] | 407
O=C(NC1CCC(c2cccc(C(F)(F)F)c2)C1)c1ccc(Oc2cc3c(cc2Cl)C(C(=O)O)CCO3)cc1 (stereo not drawn) [Example 170, Sodium 6-chloro-7-(4-(3-(3-(trifluoromethyl)phenyl)cyclopentylcarbamoyl)phenoxy)chroman-4-carboxylate] | 298
O=C(NCCc1c(Cl)cccc1Cl)c1ccc(Oc2cc3c(cc2Cl)C(C(=O)O)CCO3)cc1 (stereo not drawn) [Example 80, Sodium 6-chloro-7-(4-(2,6-dichlorophenethylcarbamoyl)phenoxy)chroman-4-carboxylate] | 165
O=C(NCCc1cccc(Cl)c1Cl)c1ccc(Oc2cc3c(cc2Cl)C(C(=O)O)CCO3)cc1 (stereo not drawn) [Example 139, Sodium 6-chloro-7-(4-(2,3-dichlorophenethylcarbamoyl)phenoxy)chroman-4-carboxylate] | 226
O=C(NCCc1ccc(F)cc1F)c1ccc(Oc2cc3c(cc2Cl)C(C(=O)O)CCO3)cc1 (stereo not drawn) [Example 81, Sodium 6-chloro-7-(4-(2,4-difluorophenethylcarbamoyl)phenoxy)chroman-4-carboxylate] | 191
O=C(NCCc1ccc(Cl)cc1-c1ccccc1Cl)c1ccc(Oc2cc3c(cc2Cl)C(C(=O)O)CCO3)cc1 (stereo not drawn) [Example 33, Sodium 6-chloro-7-(4-(2-(2′,5-dichlorobiphenyl-2-yl)ethylcarbamoyl)phenoxy)chroman-4-carboxylate] | 126
O=C(NCCCCc1ccccc1Cl)c1ccc(Oc2cc3c(cc2Cl)C(C(=O)O)CCO3)cc1 (stereo not drawn) [Example 17, Sodium 6-chloro-7-(4-(4-(2-chlorophenyl)butylcarbamoyl)phenoxy)chroman-4-carboxylate] | 395
Cc1cc(Cl)ccc1CCNC(=O)c1ccc(Oc2cc3c(cc2Cl)C(C(=O)O)CCO3)cc1 (stereo not drawn) [Example 27, Sodium 6-chloro-7-(4-(4-chloro-2-methylphenethylcarbamoyl)phenoxy)chroman-4-carboxylate] | 216

Further lines, results first:

EC50 [nM] | Compound
3480 | CN(C)Cc1ccc(CCNC(=O)c2ccc(Oc3cc4c(cc3C#N)C(C(=O)O)CCO4)cc2)cc1 (stereo not drawn) [Example 44, 6-Cyano-7-(4-(4-((dimethylamino)methyl)phenethylcarbamoyl)phenoxy)chroman-4-carboxylic acid]
225 | O=C(NCC1CCc2cc(Cl)ccc21)c1ccc(Oc2cc3c(cc2Cl)C(C(=O)O)CCO3)cc1 (stereo not drawn) [Example 231, 6-chloro-7-(4-((5-chloro-2,3-dihydro-1H-inden-1-yl)methylcarbamoyl)phenoxy) chroman-4-carboxylic acid]
73.8 | O=C(NCCc1ccc(Cl)cc1Cl)c1ccc(Oc2cc3c(cc2C2CC2)C(C(=O)O)CCO3)cc1 (stereo not drawn) [Example 42, Sodium 6-cyclopropyl-7-(4-(2,4-dichlorophenethylcarbamoyl)phenoxy)chroman-4-carboxylate]
1380 | O=C(NCCc1ccc(O)cc1)c1ccc(Oc2cc3c(cc2Cl)C(C(=O)O)CCO3)cc1 (stereo not drawn) [Example 84, Sodium 6-chloro-7-(4-(4-hydroxyphenethylcarbamoyl)phenoxy)chroman-4-carboxylate]
1010 | COc1cccc(CCNC(=O)c2ccc(Oc3cc4c(cc3Cl)C(C(=O)O)CCO4)cc2)c1 (stereo not drawn) [Example 143, Sodium 6-chloro-7-(4-(3-methoxyphenethylcarbamoyl)phenoxy)chroman-4-carboxylate]
608 | Cc1cccc(CCNC(=O)c2ccc(Oc3cc4c(cc3Cl)C(C(=O)O)CCO4)cc2)c1 (stereo not drawn) [Example 146, Sodium 6-chloro-7-(4-(3-methylphenethylcarbamoyl)phenoxy)chroman-4-carboxylate]
759 | Cc1ccccc1CCNC(=O)c1ccc(Oc2cc3c(cc2Cl)C(C(=O)O)CCO3)cc1 (stereo not drawn) [Example 20, Sodium 6-chloro-7-(4-(2-methylphenethylcarbamoyl)phenoxy)chroman-4-carboxylate]
282 | CSc1cccc(C2CCC(NC(=O)c3ccc(Oc4cc5c(cc4Cl)C(C(=O)O)CCO5)cc3)C2)c1 (stereo not drawn) [Example 172, Sodium 6-chloro-7-(4-(3-(3-(methylthio)phenyl)cyclopentylcarbamoyl)phenoxy)chroman-4-carboxylate]
> 2000 | O=C(NCCOc1ccccc1)c1ccc(Oc2cc3c(cc2Cl)C(C(=O)O)CCO3)cc1 (stereo not drawn) [Example 220, 6-chloro-7-(4-(2-phenoxyethylcarbamoyl)phenoxy)chroman-4-carboxylic acid]
123 | O=C(NCCc1ccc(Br)cc1Cl)c1ccc(Oc2cc3c(cc2Cl)C(C(=O)O)CCO3)cc1 (stereo not drawn) [Example 28, Sodium 7-(4-(4-bromo-2-chlorophenethylcarbamoyl)phenoxy)-6-chlorochroman-4-carboxylate]
204 | Cc1cccc(C2CCC(NC(=O)c3ccc(Oc4cc5c(cc4Cl)C(C(=O)O)CCO5)cc3)C2)c1 (stereo not drawn) [Example 169, Sodium 6-chloro-7-(4-(3-(3-methylphenyl)cyclopentylcarbamoyl)phenoxy)chroman-4-carboxylate]
119 | O=C(Nc1ccc(F)c(-c2ccc(Cl)cc2)c1)c1ccc(Oc2cc3c(cc2Cl)C(C(=O)O)CCO3)cc1 (stereo not drawn) [Example 71, 6-Chloro-7-(4-(4′-chloro-6-fluorobiphenyl-3-ylcarbamoyl)phenoxy)chroman-4-carboxylic acid]
46.5 | O=C(NCCc1ccc(C(F)(F)F)cc1C1CC1)c1ccc(Oc2cc3c(cc2Cl)C(C(=O)O)CCO3)cc1 (stereo not drawn) [Example 232, 6-chloro-7-(4-(2-cyclopropyl-4-(trifluoromethyl)phenethylcarbamoyl)phenoxy) chroman-4-carboxylic acid]
